Experimental data published in US12077503B2, “Substituted cyclic amides and their use as herbicides” (FMC CORPORATION, priority 2015, dated 2024).

How the values were obtained:
Type in all cases: in vivo
[1] = tested on: barnyardgrass (Echinochloa crus-galli); experiment: Test G Pre-Emergence Protocol; conditions: Echinochloa crus-galli, pre-emergence, 312 h, evaluated after 13 days; for pest or weed control at 15.625 g/ha: 15.625 g ai/ha; for pest or weed control at 15.625 g/ha / pest or weed control at 250 g/ha: read-out: Barnyardgrass damage rating (100=total damage to plant; 0=no damage to plant); for pest or weed control at 62.5 g/ha: 62.5 g ai/ha, 100=total damage to plant, 0=no damage to plant, read-out: Barnyardgrass damage rating; for pest or weed control at 250 g/ha: 250 g ai/ha
Method in brief: (§1)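 Pots of seeds in standard soil were grown for one day in a glasshouse (24/16 °C day/night, 14 h light, 65% humidity), then sprayed with compound in acetone/water 50:50 with 0.5% Tween 20 at 15.625, 62.5 or 250 g/ha. Damage was scored after 13 days on a 0 (none) to 100 (total) scale.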

corn (Zea mays) [2] = experiment: Test G Pre-Emergence Protocol; conditions: Zea mays, pre-emergence, 312 h, evaluated after 13 days; for plant injury at 15.625 g/ha: 15.625 g ai/ha; for plant injury at 15.625 g/ha / plant injury at 250 g/ha: read-out: Corn damage rating (100=total damage to plant; 0=no damage to plant); for plant injury at 62.5 g/ha: 62.5 g ai/ha, 100=total damage to plant, 0=no damage to plant, read-out: Corn damage rating; for plant injury at 250 g/ha: 250 g ai/ha
Method in brief: as §1

[3] = tested on: giant foxtail (Setaria faberi); experiment: Test G Pre-Emergence Protocol; conditions: Setaria faberi, pre-emergence, 312 h, evaluated after 13 days; for pest or weed control at 15.625 g/ha: 15.625 g ai/ha; for pest or weed control at 15.625 g/ha / pest or weed control at 250 g/ha: read-out: Foxtail, Giant damage rating (100=total damage to plant; 0=no damage to plant); for pest or weed control at 62.5 g/ha: 62.5 g ai/ha, 100=total damage to plant, 0=no damage to plant, read-out: Foxtail, Giant damage rating; for pest or weed control at 250 g/ha: 250 g ai/ha
Method in brief: as §1

[4] = tested on: ivy-leaved morning glory (Ipomoea hederacea); experiment: Test G Pre-Emergence Protocol; conditions: Ipomoea, pre-emergence, 312 h, evaluated after 13 days; for pest or weed control at 15.625 g/ha: 15.625 g ai/ha; for pest or weed control at 15.625 g/ha / pest or weed control at 250 g/ha: read-out: Morningglory, Ivy-leaved damage rating (100=total damage to plant; 0=no damage to plant); for pest or weed control at 62.5 g/ha: 62.5 g ai/ha, 100=total damage to plant, 0=no damage to plant, read-out: Morningglory, Ivy-leaved damage rating; for pest or weed control at 250 g/ha: 250 g ai/ha
Method in brief: as §1

[5] = tested on: redroot pigweed (Amaranthus retroflexus); experiment: Test G Pre-Emergence Protocol; conditions: Amaranthus retroflexus, pre-emergence, 312 h, evaluated after 13 days; for pest or weed control at 15.625 g/ha: 15.625 g ai/ha; for pest or weed control at 15.625 g/ha / pest or weed control at 250 g/ha: read-out: Pigweed, Redroot damage rating (100=total damage to plant; 0=no damage to plant); for pest or weed control at 62.5 g/ha: 62.5 g ai/ha, 100=total damage to plant, 0=no damage to plant, read-out: Pigweed, Redroot damage rating; for pest or weed control at 250 g/ha: 250 g ai/ha
Method in brief: as §1

[6] = tested on: velvetleaf (Abutilon theophrasti); experiment: Test G Pre-Emergence Protocol; conditions: Abutilon theophrasti, pre-emergence, 312 h, evaluated after 13 days; for pest or weed control at 15.625 g/ha: 15.625 g ai/ha; for pest or weed control at 15.625 g/ha / pest or weed control at 250 g/ha: read-out: Velvetleaf damage rating (100=total damage to plant; 0=no damage to plant); for pest or weed control at 62.5 g/ha: 62.5 g ai/ha, 100=total damage to plant, 0=no damage to plant, read-out: Velvetleaf damage rating; for pest or weed control at 250 g/ha: 250 g ai/ha
Method in brief: as §1

[7] = tested on: barnyardgrass (Echinochloa crus-galli); experiment: Test G Post-Emergence Protocol; conditions: Echinochloa crus-galli, post-emergence, 312 h, read-out: Barnyardgrass damage rating; for pest or weed control at 15.625 g/ha: 15.625 g ai/ha, evaluated after 13 days (100=total damage to plant; 0=no damage to plant); for pest or weed control at 62.5 g/ha: 62.5 g ai/ha; for pest or weed control at 62.5 g/ha / pest or weed control at 250 g/ha: evaluated after 13 days, 100=total damage to plant, 0=no damage to plant; for pest or weed control at 250 g/ha: 250 g ai/ha
Method in brief: (§2)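 Values are percent visual injury at 13 days after treatment (0 none, 100 total). Treatment was a post-emergence spray at 15.625, 62.5 or 250 g/ha on 8-day-old pot plants kept at 24/16 °C.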

corn (Zea mays) [8] = experiment: Test G Post-Emergence Protocol; conditions: Zea mays, post-emergence, 312 h, read-out: Corn damage rating; for plant injury at 15.625 g/ha: 15.625 g ai/ha, evaluated after 13 days (100=total damage to plant; 0=no damage to plant); for plant injury at 62.5 g/ha: 62.5 g ai/ha; for plant injury at 62.5 g/ha / plant injury at 250 g/ha: evaluated after 13 days, 100=total damage to plant, 0=no damage to plant; for plant injury at 250 g/ha: 250 g ai/ha
Method in brief: as §2

[9] = tested on: giant foxtail (Setaria faberi); experiment: Test G Post-Emergence Protocol; conditions: Setaria faberi, post-emergence, 312 h, read-out: Foxtail, Giant damage rating; for pest or weed control at 15.625 g/ha: 15.625 g ai/ha, evaluated after 13 days (100=total damage to plant; 0=no damage to plant); for pest or weed control at 62.5 g/ha: 62.5 g ai/ha; for pest or weed control at 62.5 g/ha / pest or weed control at 250 g/ha: evaluated after 13 days, 100=total damage to plant, 0=no damage to plant; for pest or weed control at 250 g/ha: 250 g ai/ha
Method in brief: as §2

[10] = tested on: ivy-leaved morning glory (Ipomoea hederacea); experiment: Test G Post-Emergence Protocol; conditions: Ipomoea, post-emergence, 312 h, read-out: Morningglory, Ivy-leaved damage rating; for pest or weed control at 15.625 g/ha: 15.625 g ai/ha, evaluated after 13 days (100=total damage to plant; 0=no damage to plant); for pest or weed control at 62.5 g/ha: 62.5 g ai/ha; for pest or weed control at 62.5 g/ha / pest or weed control at 250 g/ha: evaluated after 13 days, 100=total damage to plant, 0=no damage to plant; for pest or weed control at 250 g/ha: 250 g ai/ha
Method in brief: as §2

[11] = tested on: redroot pigweed (Amaranthus retroflexus); experiment: Test G Post-Emergence Protocol; conditions: Amaranthus retroflexus, post-emergence, 312 h, read-out: Pigweed, Redroot damage rating; for pest or weed control at 15.625 g/ha: 15.625 g ai/ha, evaluated after 13 days (100=total damage to plant; 0=no damage to plant); for pest or weed control at 62.5 g/ha: 62.5 g ai/ha; for pest or weed control at 62.5 g/ha / pest or weed control at 250 g/ha: evaluated after 13 days, 100=total damage to plant, 0=no damage to plant; for pest or weed control at 250 g/ha: 250 g ai/ha
Method in brief: as §2

[12] = tested on: velvetleaf (Abutilon theophrasti); experiment: Test G Post-Emergence Protocol; conditions: Abutilon theophrasti, post-emergence, 312 h, read-out: Velvetleaf damage rating; for pest or weed control at 15.625 g/ha: 15.625 g ai/ha, evaluated after 13 days (100=total damage to plant; 0=no damage to plant); for pest or weed control at 62.5 g/ha: 62.5 g ai/ha; for pest or weed control at 62.5 g/ha / pest or weed control at 250 g/ha: evaluated after 13 days, 100=total damage to plant, 0=no damage to plant; for pest or weed control at 250 g/ha: 250 g ai/ha
Method in brief: as §2

| SMILES | pest or weed control at 15.625 g/ha [1] [%] | pest or weed control at 62.5 g/ha [1] [%] | pest or weed control at 250 g/ha [1] [%] | plant injury at 15.625 g/ha (corn (Zea mays) [2]) [%] | plant injury at 62.5 g/ha (corn (Zea mays) [2]) [%] | plant injury at 250 g/ha (corn (Zea mays) [2]) [%] | pest or weed control at 15.625 g/ha [3] [%] | pest or weed control at 62.5 g/ha [3] [%] | pest or weed control at 250 g/ha [3] [%] | pest or weed control at 15.625 g/ha [4] [%] | pest or weed control at 62.5 g/ha [4] [%] | pest or weed control at 250 g/ha [4] [%] | pest or weed control at 15.625 g/ha [5] [%] | pest or weed control at 62.5 g/ha [5] [%] | pest or weed control at 250 g/ha [5] [%] | pest or weed control at 15.625 g/ha [6] [%] | pest or weed control at 62.5 g/ha [6] [%] | pest or weed control at 250 g/ha [6] [%] | pest or weed control at 15.625 g/ha [7] [%] | pest or weed control at 62.5 g/ha [7] [%] | also measured |
| --- | --- | --- | --- | --- | --- | --- | --- | --- | --- | --- | --- | --- | --- | --- | --- | --- | --- | --- | --- | --- | --- |
| CN1C[C@H](c2ccc(C(F)(F)F)c(C(F)(F)F)c2)[C@@H](C(=O)Nc2ccccc2S(C)(=O)=O)C1=O (racemic) [Compound 1799] | 10 | 70 | 70 | 0 | 70 | 80 | 50 | 90 | 90 | 0 | 0 | 0 | 0 | 10 | 40 | 0 | 0 | 20 | 0 | 60 | pest or weed control at 250 g/ha [7]: 70%; plant injury at 15.625 g/ha (corn (Zea mays) [8]): 10%; plant injury at 62.5 g/ha (corn (Zea mays) [8]): 60%; plant injury at 250 g/ha (corn (Zea mays) [8]): 70%; pest or weed control at 15.625 g/ha [9]: 20%; pest or weed control at 62.5 g/ha [9]: 70%; pest or weed control at 250 g/ha [9]: 70%; pest or weed control at 15.625 g/ha [10]: 10%; pest or weed control at 62.5 g/ha [10]: 60%; pest or weed control at 250 g/ha [10]: 30%; pest or weed control at 15.625 g/ha [11]: 0%; pest or weed control at 62.5 g/ha [11]: 60%; pest or weed control at 250 g/ha [11]: 70%; pest or weed control at 15.625 g/ha [12]: 0%; pest or weed control at 62.5 g/ha [12]: 20%; pest or weed control at 250 g/ha [12]: 10% |
| Cc1cc([C@H]2CN(C)C(=O)[C@@H]2C(=O)Nc2cccc(F)n2)cc(C(F)(F)F)c1 (racemic) [Compound 1801] | 40 | 80 | 90 | 10 | 40 | 80 | 80 | 90 | 90 | 0 | 0 | 40 | 0 | 20 | 40 | 0 | 10 | 20 | 20 | 60 | pest or weed control at 250 g/ha [7]: 70%; plant injury at 15.625 g/ha (corn (Zea mays) [8]): 10%; plant injury at 62.5 g/ha (corn (Zea mays) [8]): 70%; plant injury at 250 g/ha (corn (Zea mays) [8]): 80%; pest or weed control at 15.625 g/ha [9]: 70%; pest or weed control at 62.5 g/ha [9]: 80%; pest or weed control at 250 g/ha [9]: 80%; pest or weed control at 15.625 g/ha [10]: 0%; pest or weed control at 62.5 g/ha [10]: 10%; pest or weed control at 250 g/ha [10]: 50%; pest or weed control at 15.625 g/ha [11]: 0%; pest or weed control at 62.5 g/ha [11]: 0%; pest or weed control at 250 g/ha [11]: 40%; pest or weed control at 15.625 g/ha [12]: 0%; pest or weed control at 62.5 g/ha [12]: 0%; pest or weed control at 250 g/ha [12]: 0% |
| Cc1c(F)cccc1NC(=O)[C@@H]1C(=O)N(C)C[C@H]1c1ccnc(OCC(F)(F)F)c1 (racemic) [Compound 1802] | 10 | 70 | 90 | 0 | 0 | 70 | 70 | 90 | 90 | 0 | 0 | 40 | 0 | 10 | 30 | 0 | 20 | 70 | 0 | 60 | pest or weed control at 250 g/ha [7]: 70%; plant injury at 15.625 g/ha (corn (Zea mays) [8]): 0%; plant injury at 62.5 g/ha (corn (Zea mays) [8]): 0%; plant injury at 250 g/ha (corn (Zea mays) [8]): 60%; pest or weed control at 15.625 g/ha [9]: 40%; pest or weed control at 62.5 g/ha [9]: 70%; pest or weed control at 250 g/ha [9]: 80%; pest or weed control at 15.625 g/ha [10]: 0%; pest or weed control at 62.5 g/ha [10]: 0%; pest or weed control at 250 g/ha [10]: 0%; pest or weed control at 15.625 g/ha [11]: 0%; pest or weed control at 62.5 g/ha [11]: 0%; pest or weed control at 250 g/ha [11]: 40%; pest or weed control at 15.625 g/ha [12]: 0%; pest or weed control at 62.5 g/ha [12]: 40%; pest or weed control at 250 g/ha [12]: 70% |
